Measurements: ChEMBL document CHEMBL1123899, “Nucleic acid related compounds. 51. Synthesis and biological properties of sugar-modified analogues of the nucleoside antibiotics tubercidin, toyocamycin, sangivamycin, and formycin” (1987)
In brackets after ≈: the same amount, converted by molar mass.

System: Vaccinia virus
Assay: Minimum inhibitory concentration required to reduce vaccinia virus(VV) induced cytopathogenicity by 50%
Format: functional
Conditions: Orthopoxvirus vaccinia

| SMILES | MIC50 |
| --- | --- |
| N#Cc1cn(C2OC(CO)CC2O)c2ncnc(N)c12 (configuration not stated) | 0.1 µg/mL (≈ 0.363 µM) |
| Nc1ncnc2c1ccn2[C@H]1C[C@H](O)[C@@H](CO)O1 [2'-Deoxytubercidin] | 10 µg/mL (≈ 40 µM) |
| NC(=O)c1cn([C@H]2C[C@H](O)[C@@H](CO)O2)c2ncnc(N)c12 | 0.4 µg/mL (≈ 1.36 µM) |
| Nc1ncnc2c([C@@H]3O[C@H](CO)[C@@H](O)[C@H]3O)[nH]nc12 [FORMYCIN] | 7 µg/mL (≈ 26.2 µM) |
| NC(=O)c1ncn([C@@H]2O[C@H](CO)[C@@H](O)[C@H]2O)n1 [RIBAVIRIN] | 20 µg/mL (≈ 81.9 µM) |
| Nc1ncnc2c1ccn2[C@@H]1O[C@H](CO)[C@H](O)[C@H]1O | 0.03 µg/mL (≈ 0.113 µM) |
| N#Cc1cn([C@@H]2O[C@H](CO)[C@@H](O)[C@H]2O)c2ncnc(N)c12 [TOYOCAMYCIN] | > 0.04 µg/mL |
| Nc1ncnc2c(C3OC(CO)CC3O)n[nH]c12 (configuration not stated) | > 400 µg/mL |
| NC(=O)c1cn(C2OC(CO)CC2O)c2ncnc(N)c12 (configuration not stated) | 2 µg/mL (≈ 6.82 µM) |
| NC(=O)c1cn([C@@H]2O[C@H](CO)[C@@H](O)[C@@H]2O)c2ncnc(N)c12 | 0.2 µg/mL (≈ 0.647 µM) |
| N#Cc1cn([C@H]2C[C@H](O)[C@@H](CO)O2)c2ncnc(N)c12 | 0.1 µg/mL (≈ 0.363 µM) |
| Nc1ncnc2c1ccn2C1OC(CO)CC1O (configuration not stated) | 1.5 µg/mL (≈ 5.99 µM) |
| N#Cc1cn([C@@H]2O[C@H](CO)[C@@H](O)[C@@H]2O)c2ncnc(N)c12 | 1 µg/mL (≈ 3.43 µM) |
| Nc1ncnc2c1ccn2[C@@H]1O[C@H](CO)[C@@H](O)[C@H]1O [TUBERCIDIN] | 0.007 µg/mL (≈ 0.0263 µM) |
| NC(=O)c1cn([C@@H]2O[C@H](CO)[C@@H](O)[C@H]2O)c2ncnc(N)c12 [SANGIVAMYCIN] | 0.02 µg/mL (≈ 0.0647 µM) |
| Nc1ncnc2c([C@H]3C[C@H](O)[C@@H](CO)O3)n[nH]c12 | > 400 µg/mL |
| Nc1ncnc2c1ccn2[C@@H]1O[C@H](CO)[C@@H](O)[C@@H]1O | 40 µg/mL (≈ 150 µM) |
